Source: patent US20110098495A1, “Compositions and methods of omega polyunsaturated fatty acids for the treatment of oral diseases” (priority 2009, published 2011)
In brackets after ≈: the same amount, converted by molar mass.

What was measured:
Format in all cases: cell-based
[1] = system: Actinobacillus actinomycetemcomitans; assay: Actinobacillus actinomycetemcomitans growth inhibition; settings: Aggregatibacter actinomycetemcomitans; final concentration 15 μg/ml
Method: [The procedure below names another organism; the source lists this organism under the same test.] (§1) The inventor verified the test by dissolving 1 mg of omega-3 fatty acids (EPA, DHA, and ALA) and omega-6 fatty acids (ARA, GLA), omega-3 fatty acid methyl esters (EPA-ME, DHA-ME, ALA-ME), and omega-3 fatty acid ethyl esters (EPA-EE, DHA-EE, ALA-EE) in 1000 μl ethanol solution; took 1 (final concentration 1 μg/ml) and 5 μl (final concentration 5 μg/ml) solution by adding 100 μl of Streptococcus mutans in the culture medium cultured overnight at 37° C. After the overnight culture, the medium was diluted 1:10000 times, 5 μl of the diluted culture was applied to blood agar plate and cultured overnight. Calculated the number of colonies on the plates and compared with the control group to obtain the percentage of inhibition.

Candida albicans = Candida albicans growth inhibition; settings: final concentration 25 μg/ml
Method: [The procedure below names another organism; the source lists this organism under the same test.] as §1

Streptococcus mutans = Streptococcus mutans growth inhibition, colony count on blood agar plate vs control; settings: overnight culture 37° C, colony count vs negative control, read-out: IC50 against Streptococcus mutans
Method: as §1

| Structure (SMILES) | inhibition at 15 µg/mL [1] | inhibition at 25 µg/mL (Candida albicans) | IC50 (Streptococcus mutans) |
| --- | --- | --- | --- |
| CC/C=C\C/C=C\C/C=C\CCCCCCCC(=O)O [ALA, α-linolenic acid] | 50% | 50% |  |
| CCCCC/C=C\C/C=C\C/C=C\CCCCC(=O)O [GLA, γ-linolenic acid] |  |  | ~5 µg/mL (≈ 18 µM) |
| CC/C=C\C/C=C\C/C=C\C/C=C\C/C=C\C/C=C\CCC(=O)O [DHA, docosahexaenoic acid] | 50% | 50% |  |
| CCCCC/C=C\C/C=C\C/C=C\C/C=C\CCCC(=O)O [ARA, arachidonic acid] | 50% | 50% | ~5 µg/mL (≈ 16.4 µM) |
| CC/C=C\C/C=C\C/C=C\C/C=C\C/C=C\CCCC(=O)O [EPA, eicosapentaenoic acid] | 50% | 50% |  |
